The conditions of data set [1]: cited from earlier work.
The subject of data set [2] is BK- and C48/80-induced plasma extravasation in dorsal skin of C57Bl/6 mice. The data set can be described thus: Skin edema (plasma extravasation, Evans blue method) induced by BK or C48/80. It is filed as in vivo. The note with it: for BK-induced plasma extravasation / reduction of C48/80-induced plasma extravasation: 2.32 μmol/kg i.p. (1.0 mg/kg Bud, 1.3 mg/kg Bud-21 P—Na2) 60 min before i.d. injection, 30 min. Here is the method:
In Protocol 3, Bud (at doses of 1.0 and 0.30 mg/kg) and Bud 21-P Na2 (at doses of 1.3 and 0.39 mg/kg) were administered on a molar base, these doses were equivalent to […] μmol/kg of each compound, respectively. The vehicle for dissolution of the compounds was sterile saline solution (0.9% NaCl) containing 12.5% DMSO (Sigma Chemical Co., St. Louis, MO). The compound solutions were prepared at concentrations such that the administered dose per kg of body weight results from the intraperitoneal (i.p.) administration of 10 ml/kg of each of the solutions.
Skin edema was assessed in mice according to the method previously described by Costa et al. (2006), Vasc. Pharmacol; 45: 209-214 and Yshii et al (2009), Toxicon; 53: 42-52. The mice were anesthetized with urethane (25% w/v, 10 ml/kg, i.p.), had their dorsal skin shaved, and thereafter i.p. treated with the vehicle/test compounds. Fifty-five minutes later, a volume of 100 μL of Evans blue dye solution (0.25% in sterile saline) was intravenously (i.v.) injected via the tail vein. Five minutes later, the BK and C48/80 were intradermally (i.d.) injected into the dorsal skin at a fixed volume of 50 μl using a randomized scheme. The same volume of Tyrode solution 50 μl was injected as a control. Thirty minutes later, a 1 ml blood sample was obtained via cardiac puncture and the mice were killed by urethane overdose followed by cervical dislocation. The blood samples were centrifuged at 6,000 g for 4 min to obtain the plasma. The dorsal skin was removed, and the injected sites were punched out using an 8 mm diameter cork borer. A non-injected skin site distant from the injection sites was also punched and taken as a blank. The dye was extracted from each piece of skin and plasma (100 μl) samples using formamide, and the absorbance of the resulting solutions was measured at 620 nm. The plasma extravasation due to each agent (expressed in μl/site) was calculated as the ratio between the absorbance of each respective skin piece, corrected by the blank value and plasma sample solutions, properly adjusted by the dilution factors [Vasc. Pharmacol (2006); 45: 209-214]. To homogenate data due to the variability of different group of animals (inter-group variations), edema data are expressed as the fold-change response relative to the mean Tyrode (control) response of each experiment.

The conditions of data set [3]: at physiological pH in the intestinal region; cited from earlier work.
For data set [4], the system named is leukocyte recruitment to the bronchoalveolar space in OVA-induced allergic Balb/c mice. The data set can be described thus: BAL fluid total and differential leukocyte counts in OVA-induced allergic asthma. Format: in vivo. The note with it: 4 weeks, vs Sham. Here is the method: (§1) In Protocol 2, the test compounds Bud (MW: 430.53 g/mol) and Bud-21 P Na2 (MW: 554.48 g/mol) were administered at equimolar doses of 3, 10 and 30 nmol/animal/day, equivalent to 1.3, 4.3 and 12.9 μg/animal/day of Bud, 1.7, 5.5 and […] of Bud-21 P Na2, respectively. The compounds were dissolved in 10% sterile saline+90% DMSO (Sigma Chemical Co., St. Louis, MO) at the correspondent concentrations at which the above-mentioned doses per animal result from the intra-nasal (i.n.) administration of 10 μl/animal (5 μl/nostril) of each of the solutions.
Mice were sensitized with two subcutaneous injections of 0.2 ml of OVA/Al(OH)3, with an interval of 7 days (Sham animals received the Al(OH)3 suspension in PBS with no OVA). Seven days after the second sensitization (i.e., 3rd week), the animals were nebulized twice a week with the 1% OVA solution (Sham and untreated OVA groups were nebulized with PBS) during 20 minutes for the next […]. […]
After Penh evaluation, the mice were anesthetized with inhaled isofluorane (5% v/v in O2) and blood samples were collected from the descending abdominal aorta. […] Total cell counts were determined using a Neubauer chamber, and differential counting was carried out in cytospin (Fanem Mod 2400; Sao Paulo, Brazil) preparations stained with May-Grünwald dye. […]

Data set [5] deals with carrageenan-induced paw edema in CD-1 mice. The data set can be described thus: Carrageenan-induced paw edema. Format: in vivo. The note with it: first phase; for time after carrageenan at which the significant inhibition level is reached (onset of effect): dose of 0.3 mg/kg, i.p.; for dose relation of anti-inflammatory effect / maximum inhibition of edema: doses 0.1, 0.3, 1 mg/kg i.p.; for maximum inhibition of edema: Bud-21 P—Na2 maximum with either 0.3 or 1 mg/kg. Here is the method: In Protocol 1 (paw edema), the test compounds budesonide (Bud) and budesonide 21-phosphate sodium salt (Bud 21-P Na2) have been tested. Both compounds were administered in a volume of 100 μl intraperitoneally 1 hour before the induction of the inflammatory reaction. Doses of 0.1, 0.3 e 1 mg/kg were tested.
Carrageenan edema in the paw of the CD-1 mice involves the sub-plantar administration of 50 μl of 1% carrageenan and the measurement of the increase in the volume of the paw by using a hydroplethysmometer. This experimental model has a biphasic development (Posadas et al., Br J Pharmacol 2004 May; 142(2):331-338). The first phase, which is acute, is sustained by an increase in permeability accompanied by infiltration of neutrophils, which develops and resolves between 4 and 5 hours. The second phase occurs after 24 hours and is characterized by macrophage infiltration and has the characteristics of sub chronic inflammation, which reaches its maximum after 72 hours and resolves after 5 days. Bud and Bud 21-P Na2 have been tested. Both compounds were administered in a volume of 100 μl intraperitoneally 1 hour before the induction of the inflammatory reaction. Doses of 0.1, 0.3 e 1 mg/kg were tested.
(In general: In the carrageenan paw model, swelling and tenderness develop within hours.)

Data set [6] deals with methacholine-induced bronchoconstriction in OVA-induced allergic Balb/c mice. The data set can be described thus: Lung hyperreactivity / Penh function in OVA-induced allergic asthma. It is filed as in vivo. The note with it: 3, 10 and 30 nmol/animal/day i.n., 4 weeks; vs untreated OVA group. Here is the method: as §1
Chicken egg-white ovalbumin (OVA; grade V, cat. A5503, Sigma Chemical Co., St. Louis, MO) was dissolved in sterile phosphate buffered saline (PBS) solution (250 μg/ml) and Al(OH)3 was added (at 13 mg/ml). This mix was used to induce the allergic sensitization of the animals by subcutaneous injection. OVA was dissolved at 1% in sterile PBS solution and this solution was nebulized (as the immunological challenges).
Mice were sensitized with two subcutaneous injections of 0.2 ml of OVA/Al(OH)3, with an interval of 7 days (Sham animals received the Al(OH)3 suspension in PBS with no OVA). Seven days after the second sensitization (i.e., 3rd week), the animals were nebulized twice a week with the 1% OVA solution (Sham and untreated OVA groups were nebulized with PBS) during 20 minutes for the next […].
Three hours after the challenges (OVA nebulization) and daily during the next 4 weeks (following the first OVA challenge), mice were intra-nasally treated (10 μl/animal as 5 μl/nostril) with the respective compounds/vehicle, and the last dose was administered 30 min before the Penh measurement at the end of the 6th week.
Airway responsiveness in conscious, spontaneously breathing animals was measured at the end of the 6th week (i.e., after 4-week OVA challenges+treatments), 24 h after the last OVA/PBS challenge via whole body plethysmography (Buxco Europe Ltd, Winchester, UK), as previously described (Santos et al., 2014). Experiments were carried out in a quiet room by an investigator who was unaware of the nature of treatments.
Aerosolized saline (50 μl/mouse during 60 s) and then the muscarinic agonist methacholine (MCh) at increasing concentrations (3.12, 6.25, 12.5 and 25.0 mg/ml in PBS) was nebulized through an inlet of the main chamber for 3 min each to induce bronchoconstriction and readings were taken and averaged for 6 min following each nebulization. After 20 min, the baseline values usually returned at the end of this period. Enhanced pause (Penh) was measured as an indicator of bronchoconstriction and consequent increase of airway resistance as: Penh=[(expiration time/relaxation time)−1]/(maximum expiration flow/maximum inspiration flow).

[7] abbreviates: 0.70 μmol/kg i.p. (0.30 mg/kg Bud, 0.39 mg/kg Bud-21 P—Na2).

This is an account of results in patent US20250090551A1, “BUDESONIDE 21-PHOSPHATE SODIUM SALT FOR USE AS ANTI-INFLAMMATORY OR ANTIASTHMATIC AGENT” (GENETIC S.P.A., priority 2021, published 2025).

Values after ≈ are worked out from the molar mass of the structure shown.

As a reminder, the logP is the decadic logarithm of the partition coefficient of the neutral form, usually between octanol and water.

Turning to `CCCC1OC2CC3C4CCC5=CC(=O)C=CC5(C)C4C(O)CC3(C)C2(C(=O)CO)O1` (stereo not drawn) [Bud, 11β,21-dihydroxy-16α,17α-(butylidenebis(oxy))pregna-1,4-diene-3,20-dione], the logP in data set [1] was 3.2. Further, in data set [2] (setting [7]), the BK-induced edema result is “ineffective” and the C48/80-induced edema result is recorded as “ineffective”. Besides, in data set [2], the BK-induced plasma extravasation result is on record as “abolished” and the “reduction of C48/80-induced plasma extravasation” value was “approximately 50%”. In addition, the solubility in water in data set [3] was 28 µg/mL (≈ 65 µM). Besides, the “total BAL leukocytes compared with Sham” value in data set [4] (3 nmol/animal/day i.n.) was “still significantly higher than that observed in the Sham mice”. In data set [4] (either 3 or 10 nmol/animal/day i.n.), the “BAL macrophages compared with Sham” value is recorded as “still significantly higher than those observed in the Sham group”. Further, in data set [5], the “time after carrageenan at which the significant inhibition level is reached (onset of effect)” value amounted to 6 h, the “dose relation of anti-inflammatory effect” value is “not dose-related” and the “maximum inhibition of edema” value is on record as “about 50%”. Moreover, in data set [6], the “Penh AUC (area under Penh vs methacholine curve)” value was “significant reduction of this response just at the highest dose” and the “Penh Emax (maximal response)” value is reported as “significant reduction of this response just at the highest dose”.

For the molecule “Budesonide 21-phosphate sodium salt [Bud-21 P—Na2]”, the C48/80-induced edema result in data set [2] (setting [7]) was “significantly inhibited”. In data set [2], the BK-induced plasma extravasation entry is listed as “abolished” and the “reduction of C48/80-induced plasma extravasation” value was “approximately 50%”. Also, the “inhibition of edema formation” value in data set [5] (0.1 mg/kg i.p. 60 min before carrageenan) was determined as 50%. In data set [5], the “time after carrageenan at which the significant inhibition level is reached (onset of effect)” value is 2 h, the “dose relation of anti-inflammatory effect” value is recorded as “dose-related anti-inflammatory effect” and the “maximum inhibition of edema” value is recorded as 70%. In data set [6], the “Penh AUC (area under Penh vs methacholine curve)” value is recorded as “significantly reduced” and the “Penh Emax (maximal response)” value was “significantly reduced”.
